Measurements published in the NIST ThermoML archive (doi:10.1021/je030168a).

Key:
[1] = Liquid
[2] = excess molar enthalpy (molar enthalpy of mixing); xn = mol fraction of the nth substance listed; details: 298.15 K, 101.3 kPa, Liquid, Flow calorimetry

CCCCBr [1-bromobutane]
[1]
Details	vapor or sublimation pressure [kPa]
278.15 K	1.86
283.15 K	2.48
288.15 K	3.265
293.15 K	4.261
298.15 K	5.506
303.15 K	7.039
308.15 K	8.899
313.15 K	11.15
318.15 K	13.87
323.15 K	17.09

CCCCBr [1-bromobutane] + CCCCCCCCO
[2]
Details	excess molar enthalpy [kJ/mol]
x2 = 0.025	0.364
x2 = 0.0571	0.602
x2 = 0.1224	0.84
x2 = 0.1949	0.976
x2 = 0.2361	1.02
x2 = 0.276	1.05
x2 = 0.3205	1.06
x2 = 0.367	1.06
x2 = 0.4661	1
x2 = 0.5784	0.889
x2 = 0.7064	0.692
x2 = 0.8484	0.4
x2 = 0.9311	0.204

CCCCCCCCCCO [decan-1-ol]
[1], Closed cell (Static) method
Details	vapor or sublimation pressure [kPa]
308.15 K	0.001
313.15 K	0.004
318.15 K	0.007
323.15 K	0.011

CCCCCCCCO [octan-1-ol]
[1]
Details	vapor or sublimation pressure [kPa]
288.15 K	0.001
293.15 K	0.003
298.15 K	0.007
303.15 K	0.011
308.15 K	0.019
313.15 K	0.031
318.15 K	0.051
323.15 K	0.08
